Patent US7173035B2, “Arylsulfonamide compounds” (Biovitrum AB, priority 2001, dated 2007)
Counter-ions that a name gives are not always drawn.

Key:
Obese (ob/ob) mouse = experiment: In vivo assay of reduction of food intake

## CN1CCCN(c2ccc(S(=O)(=O)Nc3ccccc3)cc2N)CC1 (as salt: hydrochloride) [Example 92, 3-Amino-4-(4-methyl-1,4-diazepan-1-yl)-N-phenylbenzenesulfonamide]
other
  melting point: 84 to 85 °C

## Cl.O=S(=O)(Nc1ccc(N2CCCNCC2)cc1NS(=O)(=O)c1ccccc1)c1ccccc1 [Example 27, N-{4-(homopiperazinyl)-2-[(phenylsulfonyl)amino]phenyl}benzenesulfonamide hydrochloride]
Obese (ob/ob) mouse; Dose 50 mg/Kg
  Reduction of Food Intake (%) po administration: 28%

## CCN(c1cc(N2CCCNCC2)ccc1NS(=O)(=O)c1ccccc1)S(=O)(=O)c1ccccc1.Cl [Example 29, N-{4-(1,4-diazepan-1-yl)-2-[ethyl(phenylsulfonyl)amino]phenyl}benzenesulfonamide hydrochloride]
Obese (ob/ob) mouse; Dose 100 mg/Kg
  Reduction of Food Intake (%) po administration: 60%
